Where only a bound is given, the exact number is not on record here.

One data set has as its target T1, KRAS(G12D)/SOS1 (Homo sapiens, UniProt P01116, G12D).
T1 construct: purchased Cisbio 63ADK000CB17PEH
Nature of the data set: KRAS(G12D)/SOS1 Homogeneous Time-Resolved Fluorescence (HTRF) Assay. Conditions: absence of GTP, 4° C. for 3 hr. Type of data set: binding. Here is the method:
Binding of test compounds to KRAS(G12D) target protein, which in turn blocks KRAS(G12D) interaction with the SOS1 protein, was measured in the absences of GTP by homogeneous time-resolved fluorescence using the KRAS-G12D/SOS1 Binding Assay Kit (Cisbio, 63ADK000CB17PEH), following the manufacturer's instructions, except as noted. 3-fold serial dilutions of each test compound were prepared ranging from 20 µM to 1.02 nM. The test compound was mixed and incubated with reaction components, incubated in a sealed plate at 4° C. for 3 hr and fluorescence was measured using a PerkinElmer Envision plate reader. The KRAS(G12D)-SOS1 IC50 values (the concentration of 50% of the maximal inhibition) were calculated using GraphPad Prism 7 software.
Background: Time-resolved FRET reads energy transfer from a long-lived donor to a nearby acceptor.

Data set [1] in a line: Oral Bioavailability in CD-1 mice. It counts as in vivo. As to conditions: mouse, blood; male CD-1 mice, single oral dose, LC-MS/MS; read-out: % F (mean oral bioavailability). Here is the method:
CD-1 mice were randomly assigned to 6 groups with 3 male mice in each compound group. Compounds were orally administered (P0) in a single dose to each mouse in its group. Blood samples were taken within 72 hours. Bioavailability (F %) was determined and by liquid chromatography-mass spectrometry (LC-MS/MS).

For the next data set, the system named is SW1990 cells. Nature of the data set: Cancer Cell Line Proliferation (CellTiter-Glo) SW1990. As to conditions: Homo sapiens, 72 hr, read-out: CTG(IC50) ABS-72H(nM) SW1990. Type of data set: cell-based. Here is the method:
(§1) The following cancer cell lines were employed: AGS gastric carcinoma [heterozygous […]](ATCC, CRL-1739); A-427 lung carcinoma [heterozygous G12D](ATCC, HTB-53); ASPC1 pancreatic adenocarcinoina [homozygous […]](ATCC, CRL-1682) and SW1990 pancreatic adenocarcinoma [homozygous G12D](ATCC CRL-2172). Cell lines were cultured essentially according to ATCC recommendations. AGS, SW1990, and GP2D cells were plated in 96-well tissue culture plates at 4,000 cells/well and incubated at 37° C./5% CO2 for 72 hr in 100 μl of media. 3-fold serial dilutions of each test compound were prepared ranging from 20 µM to 1.02 nM. Each cell line was then treated with test compounds at various concentrations with a final concentration of 0.5% DMSO/well, and then incubated at 37° C./5% CO2 for 72 hr. 100 μl of CellTiter-Glo® Reagent (Promega Corporation, Madison, WI) was added to each well and processed according manufacturer's protocol. Results were analyzed and IC50 values were calculated in GraphPad 7 software.
For orientation: In ATP-based viability assays light output follows the ATP content of the culture.

The subject of another data set is GP2D cells. Nature of the data set: Cancer Cell Line Proliferation (CellTiter-Glo) GP2D. It counts as cell-based. As to conditions: 72 hr, read-out: CTG(IC50) ABS-72H(nM) GP2D. The protocol: AGS, SW1990, and GP2D cells were plated in 96-well tissue culture plates at 4,000 cells/well and incubated at 37° C./5% CO2 for 72 hr in 100 μl of media. 3-fold serial dilutions of each test compound were prepared ranging from 20 µM to 1.02 nM. Each cell line was then treated with test compounds at various concentrations with a final concentration of 0.5% DMSO/well, and then incubated at 37° C./5% CO2 for 72 hr. 100 μl of CellTiter-Glo® Reagent (Promega Corporation, Madison, WI) was added to each well and processed according manufacturer's protocol. Results were analyzed and IC50 values were calculated in GraphPad 7 software.

Another data set concerns AGS cells. Nature of the data set: Cancer Cell Line Proliferation (CellTiter-Glo) AGS. Type of data set: cell-based. Conditions: Homo sapiens, 72 hr, read-out: CTG(IC50) ABS-72H(nM) AGS. Here is the method:
as §1

T1 sequence (P01116 1-188 isoform P01116-2 G12D): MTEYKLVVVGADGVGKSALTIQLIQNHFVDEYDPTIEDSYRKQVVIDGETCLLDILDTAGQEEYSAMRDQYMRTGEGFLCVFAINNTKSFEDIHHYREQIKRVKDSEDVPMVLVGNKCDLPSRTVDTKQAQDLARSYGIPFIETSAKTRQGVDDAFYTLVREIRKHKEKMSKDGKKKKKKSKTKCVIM

Turning to `C#Cc1c(F)ccc2cc(O)cc(-c3nc(OC)c4c(N5CC6CCC(C5)N6)nc(OCC(=C)CN5CC6CC6C5)nc4c3F)c12` (centres unmarked) [Example 1, 4-{2-[(2-{3-azabicyclo[3.1.0]hexan-3-ylmethyl}prop-2-en-1-yl)oxy]-4-{3,8-diazabicyclo[3.2.1]octan-3-yl}-8-fluoro-5-methoxypyrido[4,3-d]pyrimidin-7-yl}-5-ethynyl-6-fluoronaphthalen-2-ol], the IC50 against KRAS(G12D)/SOS1, with SW1990 cells, in the data set on GP2D cells and in the data set with AGS cells was less than 100 nM throughout. Besides, in data set [1], the bioavailability came out at 10.6%.
For `C#Cc1c(F)ccc2cc(O)cc(-c3nc(OC)c4c(N5CC6CCC(C5)N6)nc(OCC(CN5CC6CC6C5)=C(C)C)nc4c3F)c12` (centres unmarked) [Example 2, 4-{2-[(2-{3-azabicyclo[3.1.0]hexan-3-ylmethyl}-3-methylbut-2-en-1-yl)oxy]-4-{3,8-diazabicyclo[3.2.1]octan-3-yl}-8-fluoro-5-methoxypyrido[4,3-d]pyrimidin-7-yl}-5-ethynyl-6-fluoronaphthalen-2-ol], the IC50 at KRAS(G12D)/SOS1, with SW1990 cells, with GP2D cells and with AGS cells was less than 100 nM throughout. Moreover, in data set [1], the bioavailability came to 12.1%.
For `C#Cc1c(F)ccc2cc(O)cc(-c3ncc4c(N5CC6CCC(C5)N6)nc(OCC(=C)CN5CCC(F)CC5)nc4c3F)c12` [Example 3], the IC50 on KRAS(G12D)/SOS1, with SW1990 cells, with GP2D cells and with AGS cells was less than 100 nM in each case.
Consider `[2H]C([2H])([2H])Oc1nc(-c2cc(O)cc3ccc(F)c(C#C)c23)c(F)c2nc(OCC(=C)CN3CC4CC4C3)nc(N3CC4CCC(C3)N4)c12` (centres unmarked) [Example 4], for which the IC50 on KRAS(G12D)/SOS1, with SW1990 cells, in the data set on GP2D cells and with AGS cells was less than 100 nM in each case. Further, the bioavailability in data set [1] was determined as 1.7%.
On to `C#Cc1c(F)ccc2cc(O)cc(-c3nc(OC)c4c(N5CC6CCC(C5)N6)nc(OCC(=C)CN5CC6C(F)C6C5)nc4c3F)c12` (centres unmarked) [Example 5], for which the IC50 against KRAS(G12D)/SOS1, with SW1990 cells, in the data set on GP2D cells and in the data set on AGS cells was less than 100 nM each time. In data set [1], the bioavailability amounted to 7.7%.
Regarding `C#Cc1c(F)ccc2cc(O)cc(-c3nc(OC)c4c(N5CC6CCC(C5)N6)nc(OCC(CN5CC6CC6C5)=C(F)F)nc4c3F)c12` (centres unmarked) [Example 6], the IC50 with SW1990 cells, with GP2D cells and with AGS cells was less than 100 nM in each case.
With `C#Cc1c(F)ccc2cc(O)cc(-c3nc(OC)c4c(N5CC6CCC(C5)N6)nc(OCC(=CCC)CN5CC6CC6C5)nc4c3F)c12` (centres unmarked) [Example 7], the IC50 in the data set with GP2D cells and with AGS cells was 100 to 1000 nM in each case.
Turning to `[2H]C([2H])([2H])Oc1nc(-c2cc(O)cc3ccc(F)c(C#C)c23)c(F)c2nc(OCC(=C)CN3CC4C(F)C4C3)nc(N3CC4CCC(C3)N4C(=O)C(F)(F)F)c12` (centres unmarked) [Example 8], the IC50 with GP2D cells and in the data set on AGS cells was 100 to 1000 nM in each case.
In the case of `C#Cc1c(F)ccc2cc(O)cc(-c3nc(OC)c4c(N5CC6CCC(C5)N6)nc(OC/C(=C\C)CN5CC6CC6C5)nc4c3F)c12` (centres unmarked) [Example 9], the IC50 in the data set with GP2D cells and in the data set on AGS cells was less than 100 nM in each case.
With `C#Cc1c(F)ccc2cc(N)cc(-c3nc(OC)c4c(N5CC6CCC(C5)N6)nc(OCC(=C)CN5CC6CC6C5)nc4c3F)c12` (centres unmarked) [Example 10], the IC50 in the data set on GP2D cells is less than 100 nM; in the data set on AGS cells, 100 to 1000 nM.
Consider `C#Cc1c(F)ccc2cc(O)cc(-c3nc(OC)c4c(N5CC6CCC(C5)N6)nc(OC/C(=C/CC)CN5CC6CC6C5)nc4c3F)c12` (centres unmarked) [Example 11], for which the IC50 in the data set with GP2D cells and in the data set on AGS cells was less than 100 nM throughout.
In the case of `C#Cc1c(F)ccc2cc(O)cc(-c3nc(OC)c4c(N5CC6CCC(C5)N6)nc(OC/C(=C\CC)CN5CC6CC6C5)nc4c3F)c12` (centres unmarked) [Example 12], the figures for the IC50 with GP2D cells and in the data set on AGS cells were less than 100 nM and 100 to 1000 nM, respectively.
The matching figures for `C#Cc1c(F)ccc2cc(O)cc(-c3nc(OC)c4c(N5CC6CCC(C5)N6)nc(OC/C(=C\C(F)(F)F)CN5CC6CC6C5)nc4c3F)c12` (centres unmarked) [Example 13]: 100 to 1000 nM and 100 to 1000 nM.
The matching figures for `C#Cc1c(F)ccc2cc(O)cc(-c3nc(OC)c4c(N5CC6CCC(C5)N6CC#N)nc(OCC(CN5CC6CC6C5)=C(C)C)nc4c3F)c12` (centres unmarked) [Example 14]: less than 100 nM and less than 100 nM.
The matching figures for `C#Cc1c(F)ccc2cc(O)cc(-c3nc(OC)c4c(N5CC6CCC(C5)N6)nc(OC/C(CN5CC6CC6C5)=N/OC)nc4c3F)c12` (centres unmarked) [Example 15]: less than 100 nM and less than 100 nM.
As for `C#Cc1c(F)ccc2cc(O)cc(-c3nc(OC)c4c(N5CC6CCC(C5)N6)nc(OC/C(CN5CC6CC6C5)=N\OC)nc4c3F)c12` (centres unmarked) [Example 16], the IC50 in the data set on GP2D cells and in the data set on AGS cells was less than 100 nM throughout.
As for `C#Cc1c(F)ccc2cc(O)cc(-c3nc(OC)c4c(N5CC6CCC(C5)N6)nc(OC/C(=C\C#N)CN5CC6CC6C5)nc4c3F)c12` (centres unmarked) [Example 18], the IC50 in the data set on AGS cells is 100 to 1000 nM.
In the case of `C#Cc1c(F)ccc2c(F)c(O)cc(-c3nc(OC)c4c(N5CC6CCC(C5)N6)nc(OCC(CN5CC6CC6C5)=C(C)C)nc4c3F)c12` (centres unmarked) [Example 19], the IC50 is less than 100 nM in the data set with GP2D cells and 100 to 1000 nM in the data set on AGS cells.

What is called IC50 is the midpoint of a concentration-inhibition curve. Broadly, the bioavailability is the share of a dose that reaches the circulation, judged against a reference dose that is usually intravenous.

These data come from patent US20260200945A1, “4-(3,8-DIAZABICYCLO[3,2,1]OCTAN-3-YL)-PYRIDO[4,3-D]PYRIMIDINE DERIVATIVES AS INHIBITORS OF THE KRAS (G12D) MUTANT ONCOPROTEIN FOR THE TREATMENT OF CANCER” (Ranok Therapeutics (Hangzhou) Co. Ltd., priority 2022, published 2026).
